Laboratory results as given in patent US7906620B2, “Tumor associated antigen, peptides thereof, and use of same as anti-tumor vaccines” (Yeda Research and Development Co. Ltd., priority 2002, dated 2011).

Assays:
[1] = test system: RMAS-HHD-B7.1 target cells; experiment: Immunogenicity in HHD mice after immunization with dendritic cells pulsed with peptide pools; format: in vivo; settings: DCs pulsed with pools of 2-4 peptides; effector-to-target ratio 25:1
Method: FIGS. 13A and 13B are graphs showing immunogenicity of PAP- or STEAP-derived peptides in HHD mice. The mice were immunized i.v. one time with 1×10^6 peptide-loaded syngeneic dendritic cells (DCs). The DCs were loaded separately with individual peptides, washed and pooled before immunization. Spleens were removed on day 10, and splenocytes were re-stimulated in vitro by 100 μM PAP-derived (FIG. 13A) or STEAP-derived (FIG. 13B) peptides in OPTIMEM for 2 h at 37° C., 5% CO2, followed by restimulation of lymphocytes for 4 more days in RPMI-HEPES, as described. CTL assays were performed on day 5 with individual PAP-, STEAP-derived peptides loaded on RMAS-HHD-B7.1 as targets. Non-relevant HIV derived peptide-loaded RMAS-HHD-B7.1 cells were used as negative controls. The effector-to-target ratio of 25:1 is shown.
(§1) The immunogenicity of the peptides, namely their potential to induce T cell responses, was subsequently examined in an in vivo model. A strain of β2 microglobulin (β2m) HLA-A2.1 Monochain Transgenic, H-2D^b−/−Xβ2m^−/− double knockout mice (HHD mice) was used. Upon vaccination of these mice, a repertoire of human HLA-A2.1 restricted CTLs is produced. The lysis patterns of each of the individual peptides loaded on target cells were first evaluated following immunization with syngeneic dendritic cells pulsed with pools of 2-4 synthetic peptides derived from each examined protein.

[2] = test system: LNCaP; experiment: Lysis of LNCaP tumor cells by human anti-peptide CTL; format: cell-based; settings: LNCaP high and low HLA expressors as targets
Source text: FIGS. 18A-18E are graphs showing that human anti-peptide CTL from a healthy donor kills LNCaP tumor cells. PBMC from a healthy donor (FIGS. 18A-18C) or a CaP patient (FIGS. 18D-18E) were stimulated with PAP-3 (FIGS. 18A, 18D), STEAP-3 (FIGS. 18B, 18E) or PSGR-1 (FIG. 18C) as described. LNCaP/CRL1740 (LNCaP high in HLA-A2.1 expression), LNCaP/CRL10995 (LNCaP low in HLA-A2.1 expression) and PC3 (negative for HLA-A2.1) served as targets in CTL assays.
When human PBMC are stimulated in vitro by PAP-3 and STEAP-3 peptides, the resulting CTL can lyse target cells (T2, EL4/HHD) pulsed with PAP-3, STEAP-3 or PSGR-1 and PSGR-6 peptides. (FIGS. 15 and 16). Here, these findings were expanded and peripheral blood of three healthy and two CaP individuals was tested for the existence of CTL precursors against PAP-3, STEAP-3 and PSGR-1 peptides. Leukopheresis products of the donors were obtained from Barzilai Medical Center (Ashkelon, Israel) according to Declaration of Helsinki Principles. PBMC were isolated by centrifugation on Ficoll-Plaque Plus gradients (Amersham, Sweden). In vitro priming of CTL was done over autologous DC that were prepared from monocytes by IL-4 and GM-CSF treatment and matured with a IL-1β, IL-6, TNF-α and PGE2 cocktail. DC were pulsed with synthetic peptides and PBMC were supplemented with IL-7. Two days later, IL-2 was added and renewed every three days. Two additional re-stimulations were done every 7 days over peptide pulsed monocytes. Seven days after the third stimulation, lymphocytes were harvested and a cytolytic assay was performed using relevant/non-relevant peptide pulsed or non-pulsed T2 cells (FIGS. 17A-17C) and LNCaP (high and low HLA expressors) cells as targets (FIGS. 18A-18E). […] Monitoring of HLA-A2-peptide specific CD8+ cells for PAP-3 and STEAP-3 was also performed by MHC-peptide tetramers (tetramers of recombinant HLA-A2.1-beta2 microglobulin single chain with peptides were prepared in collaboration with Dr Yoram Reiter, Technion, Haifa). […]

[3] = test system: EL-4-HHD target cells; experiment: Immunogenicity in HHD mice after immunization with single peptide-loaded RMAS-HHD-B7.1 cells; format: in vivo; settings: single peptide immunization i.p. three times; E:T 100:1 to 12.5:1
Method: FIGS. 14A and 14B are graphs showing immunogenicity of PAP-3 (FIG. 14A) and STEAP-3 (FIG. 14B) peptides in HHD mice. Mice immunized i.p. three times at 7-day intervals, with 2×10^6 irradiated (5000 rad) were single peptide-loaded (PAP-3 for FIG. 14A, STEAP-3 for FIG. 14B) TAP-2 deficient RMAS-HHD-B7.1 cells. Spleens were removed on day 10, and splenocytes were restimulated in vitro by 100 μM PAP-3 or STEAP-3 peptides in OPTIMEM for 2 h at 37° C., 5% CO2, followed by restimulation of lymphocytes for 4 more days in RPMI-HEPES, as described. CTL assays were performed on day 5 with PAP-3 or STEAP-3 loaded on EL4-HHD as targets. Unloaded EL4-HHD or non-relevant HIV derived peptide-loaded EL4-HHD cells were used as negative controls. The effector-to-target ratios of 100:1; 50:1; 25:1; 12.5:1 are shown.
as §1

Sequence | lysis of peptide-loaded RMAS-HHD-B7.1 target cells [1] | lysis of tumor cells expressing endogenously processed proteins [2] | lysis of peptide-loaded EL-4-HHD target cells [3]
ILLWQPIPV (listed as Homo sapiens) [PAP-3, PAP start position 135] | significant lysis | lyse tumor cells | remarkable and dose-dependent lysis
LLLGTIHAL (listed as Homo sapiens) [STEAP-3, STEAP start position 262] | significant lysis | lyse tumor cells | remarkable and dose-dependent lysis
